Test results: patent EP0880540B1, “17-BETA-CYCLOPROPYL(AMINO/OXY) 4-AZA STEROIDS AS ACTIVE INHIBITORS OF TESTOSTERONE 5-ALPHA-REDUCTASE AND C17-20-LYASE” (Aventis Pharmaceuticals Inc., priority 1996, dated 1997)

Columns and labels:
[1] = target: T1, cynomolgus monkey C17,20 lyase (Macaca fascicularis, UniProt Q2XVA1); experiment: In vitro C17,20 lyase assay, testicular microsomes; format: biochemical; settings: mean of duplicates
T1 construct: microsomal preparations of the enzyme from testicular tissue; from tissue; host or cells: cynomolgus monkey testes, microsomes
T1 sequence (Q2XVA1 1-508): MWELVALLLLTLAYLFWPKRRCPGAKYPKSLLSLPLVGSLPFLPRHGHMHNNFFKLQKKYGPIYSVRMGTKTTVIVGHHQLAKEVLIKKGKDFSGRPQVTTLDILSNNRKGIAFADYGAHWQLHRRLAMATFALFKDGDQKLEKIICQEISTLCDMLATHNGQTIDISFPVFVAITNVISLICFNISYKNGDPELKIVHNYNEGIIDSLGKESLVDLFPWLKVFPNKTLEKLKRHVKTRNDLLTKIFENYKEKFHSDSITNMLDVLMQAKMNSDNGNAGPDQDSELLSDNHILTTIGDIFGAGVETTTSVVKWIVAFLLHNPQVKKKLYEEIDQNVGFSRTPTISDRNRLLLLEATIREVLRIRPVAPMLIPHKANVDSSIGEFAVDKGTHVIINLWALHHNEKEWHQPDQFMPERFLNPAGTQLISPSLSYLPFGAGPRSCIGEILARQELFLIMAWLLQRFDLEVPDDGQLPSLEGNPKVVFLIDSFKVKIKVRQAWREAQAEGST
Description: In vitro C17,20 lyase assays: Compounds were tested for inhibition of cynomolgus monkey C17,20 lyase in vitro using microsomal preparations of the enzyme from testicular tissue. Testes were removed from anesthetized animals and flash frozen in liquid nitrogen. Microsomes were isolated as described in Schatzman et al., Anal. Biochem. 175, 219-226 (1988). The compound to be tested was dissolved in dimethyl sulfoxide and diluted in 0.05 M potassium phosphate buffer, pH 7.4, to give the desired concentrations of test compound, in an amount which contributed 0.1% v/v DMSO to the total assay volume. Assays contained 0.05 M potassium phosphate buffer, pH 7.4, an NADPH regenerating system (1 mM NADPH, 5 mM glucose-6-phosphate, 1 IU/mL glucose-6-phosphate dehydrogenase), test compound, substrate and microsomal protein in a total volume of 0.2 mL. Control assays contained all components, including dimethyl sulfoxide, but not test ccmpound. All assays were performed in duplicate. The test compound was incubated with 20 to 62 µg/mL microsomal protein, buffer, and the NADPH regenerating system described above at 34°C for 0 or 40 minutes. Aliquots of 180 µL were then removed and assayed for enzyme activity by addition to 7-[^3H]-17α-hydroxypregnenolone (11.2 mCi/mmole; 0.2 µCi per assay) plus unlabeled 17α-hydroxypregnenolone dissolved in DMSO, contributing 2.5% v/v to the final assay mix, and phosphate buffer to give a total substrate concentration of 0.05 µM (=Km) per assay and subsequent incubation at 34°C for 6 minutes. Each assay was terminated by addition of 5 mL of chloroform:methanol (2:1). Carrier steroids representing substrates and produces (17α-hydroxypregnenolone, dehydroepiandrosterone, and androst-5-ene-3β,17β-diol) and 0.8 mL of distilled, deionized water were also added at this time. The steroids were extracted by the method of Moore and Wilson (Methods in Enzymol., eds. O. Malley, B.W. and Hardman, J.G. 36, 1975, pp. 466-474). The organic phase containing the steroids was evaporated using nitrogen gas, the residues dissolved in 18% tetrahydrofuran (v/v) in hexane, and the steroids were separated by HPLC on a Si60 (5 µm) column (250 x 4 mm) using a gradient of 18-22% tetrahydrofuran (v/v) in hexane. Radioactivity in the steroid peaks was measured using a Radiomatic® Model ES or Model A515 Flo-One® detector.
The enzyme activity for each assay was calculated from the percent conversion of substrate to products, and the results were expressed as percent inhibition of control. The following results were obtained, wherein the values indicated are the mean of duplicate determinations: Table 1: […]

Dunning H Tumor = experiment: Dunning H tumor growth in rats; format: in vivo, male Copenhagen rats; settings: MDL 105831 15 mg/kg/day PO, MDL 15910 50 mg/kg/day PO
From the text: As described in J.T. Isaacs & D.S. Coffey, Cancer Res. 41:5070-5075 (1981); W.J. Ellis & J.T. Issacs, Cancer Res. 45:6041-6050 (1985); T.W. Bedding & A.V. Schally, The Prostate 6:219-232 (1985) and P.E. Juniewicz et al. The Prostate 18:105-115 (1991), male Copenhagen rats were obtained from HARLAN-SPRAGUE-DAWLEY Inc. (Indianapolis, IN), and were individually housed in suspended wire cages and provided laboratory rodent chow (Purina 5001 pellets, Purina Mills, St. Louis, MO) and deionized water ad libum. The rats were anesthetized using sodium pentobarbital and the hair was clipped from the back dorsal area. Tumors from donor Copenhagen rats were cut into fragments of 10 mm^3 and implanted subcutaneously (one site per rat) into the prepared dorsal area.
Animals were selected (105 days post implantation) for the treatment phase based on tumor size. Ten animals were anesthetized with sodium pentobarbital and bilaterally castrated. The remaining animals were assigned to treatment groups (ten per group) based on mean group tumor size. Animals were kept separate throughout the study. The tested compounds were prepared in solution or suspension in a lecithin vehicle (L-α-phosphatidylcholine type XV-E) containing methylparaben and propylparaben. All treatments were performed by oral gavage (per os) at 2 cc/kg each day of study. Tumor size and rat body weights were recorded every seven days over a period of 35 days. Twenty-four hours after the last treatment animals were euthenized by CO2 and the tumors, prostate, seminal vesicles and testes were removed and weighed. In Table 4, average tumor growth is determined from the corrected group means over a 35 day period after treatment was started. […] The animals eliminated from the calculation of the corrected means were in Figure 6, animals 8, 9, 10; in Figure 7, animals 18, 19 and 20; in Figure 8, animals 27, 28, 29 and 30; and in Figure 9, animals 37, 39 and 40. The castrated controls in Figure 10 present a different problem. Here it is believed that the different tumor volumes observed throughout the group is attributable to the different sizes at the beginning of the study. Since the mean variance here is clearly attributable to factors other than the effect of the castration itself, animals 47, 48, 49 and 50 were deleted from the corrected mean. Of these, animal 47 died during the treatment period.
Table 4 indicates the average daily growth rate, measured from the corrected mean tumor size on day 35 and day 0, comparing MDL 105831 and flutamide (MDL 15910), a known androgen receptor antagonist. […]

PC-82 Human Tumor = experiment: PC-82 human tumor growth in nude mice; format: in vivo, male nude mice; settings: MDL 103432 and MDL 105831 50 mg/kg B.I.D., MDL 15910 15 mg/kg B.I.D., per os
From the text: As described in van Steenbrugge, G.J. et al., J. Urol 131: 812-817 (1984) van Steenbrugge G.J. et al., The Prostate 11: 195-210 (1987) and Redding, T.W. et al., Cancer Research 52, 2538-2544 (1992), male nude mice (Hsd:athymic, Nude-nu) were obtained from Harlan Sprague Dawley. Mice were housed in sterilized micro-isolators and fed autoclaved ABLE® rodent chow (Purina Mills Inc., St. Louis, MO) and deionized water, adlibitum. Tumor-donating mice were first anesthetized using sodium pentobarbital and then sacrificed by cervical dislocation. The tumor was subsequently excised and placed in a petri dish containing ice-cold Hanks balanced salt solution. Tumors were cut into 2-3 mm cubes for implantation. Recipient animals were first anesthetized with 50 mg/kg pentobarbital, then implanted, by use of a trocar, with tumor fragments (one per mouse) in the dorsal area. Animals were separated into two control groups, one with vehicle alone and the other castrated, and the treatment groups, where n is the number of animals in each group.
Animals were selected for treatment groups based on tumor size. Each test compound was prepared as a solution or suspension in a lecithin vehicle (L-α-phosphatidylcholine type XV-E) containing methylparaben and propylparaben at a dose volume of 10 cc/kg. Animals were treated for 42 days by oral gavage (per os) seven days per week. Twenty-four hours after the last treatment the animals were euthenized by CO2 and tumors were removed and weighed. During the study period, mice were weighed and palpated weekly for tumors. In Table 5, average tumor growth is determined from the corrected group means over a 28 day period after treatment was started. […] The following animal data was deleted before computation of the corrected mean data in Table 5, Fig. 1: animals 4 and 44; Fig. 2: animals 10, 38 and 42; Fig. 3: Animal 39; Fig. 4: Animals 8, 9 and 49; Fig. 5: Animals 37 and 40 and 41.
Table 5 illustrates the average tumor growth in animals treated with 4-aza-17β-(cyclopropyloxy)-5α-androstan-3-one (MDL 103432; 50 mg/kg B.I.D.) 4-aza-17β-(cyclopropylamino)-androst-5(6)-en-3-one (MDL 105831; 50 mg/kg B.I.D.) and flutamide (MDL 15,910; 15 mg/kg B.I.D.), a known androgen receptor antagonist. The average growth rate of each tested compound relative to the vehicle and castrated controls is consistent with the in vivo inhibition of androgens.

Compound | inhibition at 0.1 µM ([1]; preincubation 0 min) | inhibition at 0.1 µM ([1]; preincubation 40 min) | inhibition at 1 µM ([1]; preincubation 0 min) | inhibition at 1 µM ([1]; preincubation 40 min) | inhibition at 10 µM ([1]; preincubation 0 min) | inhibition at 10 µM ([1]; preincubation 40 min) | Tumor Growth in Dunning H Rat, Day 0 (Dunning H Tumor; Day 0 (baseline), corrected group mean) | Tumor Growth in Dunning H Rat, Day 7 (Dunning H Tumor; Day 7, corrected group mean) | Tumor Growth in Dunning H Rat, Day 16 (Dunning H Tumor; Day 16, corrected group mean) | Tumor Growth in Dunning H Rat, Day 21 (Dunning H Tumor; Day 21, corrected group mean) | Tumor Growth in Dunning H Rat, Day 29 (Dunning H Tumor; Day 29, corrected group mean) | Tumor Growth in Dunning H Rat, Day 35 (Dunning H Tumor; Day 35, corrected group mean) | Δv/Δt (day 35-day 0) (Dunning H Tumor; average daily growth rate from corrected mean tumor size) | Tumor Growth in PC-82 Human Tumor in Male Nude Mice, Day 7 (PC-82 Human Tumor; Day 7, corrected group mean) | Tumor Growth in PC-82 Human Tumor in Male Nude Mice, Day 15 (PC-82 Human Tumor; Day 15, corrected group mean) | Tumor Growth in PC-82 Human Tumor in Male Nude Mice, Day 21 (PC-82 Human Tumor; Day 21, corrected group mean) | Tumor Growth in PC-82 Human Tumor in Male Nude Mice, Day 28 (PC-82 Human Tumor; Day 28, corrected group mean) | Tumor Growth in PC-82 Human Tumor in Male Nude Mice, Day 35 (PC-82 Human Tumor; Day 35, corrected group mean) | Tumor Growth in PC-82 Human Tumor in Male Nude Mice, Day -4 (PC-82 Human Tumor; Day -4 (before treatment), corrected group mean) | Δv/Δt (day 35-day 7) (PC-82 Human Tumor; average tumor growth over 28 days from corrected group means)
CN1C(=O)CC[C@@]2(C)C1=CC[C@H]1[C@@H]3CC[C@H](OC4CC4)[C@@]3(C)CC[C@@H]12 (stereo in doubt) [MDL 104,313, 17β-Cyclopropyloxy-4-methyl-4-aza-androst-5-en-3-one] | -18.4% | -8.7% | 23.8% | 39.9% | 63.6% | 70.2% |  |  |  |  |  |  |  |  |  |  |  |  |  | 
CC12C=CC(=O)N[C@@H]1CCC1C2CCC2(C)C1CC[C@@H]2OC1CC1 (stereo partly drawn) [MDL 103,129, 17β-Cyclopropyloxy-4-aza-5α-androst-1-en-3-one] | 6.4% | 18.3% | 40.7% | 46.9% | 77.3% | 84.3% |  |  |  |  |  |  |  |  |  |  |  |  |  | 
CC(C)C(=O)Nc1ccc([N+](=O)[O-])c(C(F)(F)F)c1 [MDL 15910, N-(3-Trifluoromethyl-4-nitro-phenyl)-isobutyramide, reference compound] |  |  |  |  |  |  | 317.00 mm^3 | 604.64 mm^3 | 877.86 mm^3 | 851.29 mm^3 | 1313.57 mm^3 | 1214.57 mm^3 | 25.64 mm^3/day | 222.7 mm^3 | 262.9 mm^3 | 319.7 mm^3 | 563.4 mm^3 | 479.3 mm^3 | 138.7 mm^3 | 9.16 mm^3/day
